Reference: ChEMBL document CHEMBL5291721, “A preclinical secondary pharmacology resource illuminates target-adverse drug reaction associations of marketed drugs” (Nat Commun, 2023)

Tests used:
[1] = target: cGMP-inhibited 3',5'-cyclic phosphodiesterase 3A (Homo sapiens, UniProt Q14432); assay type: functional
Histamine H3 receptor = Histamine H3 receptor (Homo sapiens, UniProt Q9Y5N1)
[2] = target: 3',5'-cyclic-AMP phosphodiesterase 4A (Homo sapiens, UniProt P27815); assay type: functional
[3] = target: T1, Alpha-1A adrenergic receptor (Homo sapiens, UniProt P35348); assay type: functional, cell-based
T1 sequence (P35348 whole entry): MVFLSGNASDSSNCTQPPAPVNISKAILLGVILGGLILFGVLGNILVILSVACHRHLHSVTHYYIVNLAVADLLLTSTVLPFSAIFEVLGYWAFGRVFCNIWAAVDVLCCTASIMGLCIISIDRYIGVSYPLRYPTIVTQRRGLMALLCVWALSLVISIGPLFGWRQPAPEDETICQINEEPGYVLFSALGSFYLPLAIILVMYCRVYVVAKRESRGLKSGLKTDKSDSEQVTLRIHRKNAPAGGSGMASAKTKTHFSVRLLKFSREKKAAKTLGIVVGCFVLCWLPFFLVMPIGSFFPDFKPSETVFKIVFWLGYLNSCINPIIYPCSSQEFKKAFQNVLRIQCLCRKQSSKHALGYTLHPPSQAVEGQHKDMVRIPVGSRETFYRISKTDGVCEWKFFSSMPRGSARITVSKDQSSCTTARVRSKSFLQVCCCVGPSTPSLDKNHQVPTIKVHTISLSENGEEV

[4] = target: Sodium-dependent noradrenaline transporter (Homo sapiens, UniProt P23975)
Sequence of Sodium-dependent noradrenaline transporter (P23975 whole entry): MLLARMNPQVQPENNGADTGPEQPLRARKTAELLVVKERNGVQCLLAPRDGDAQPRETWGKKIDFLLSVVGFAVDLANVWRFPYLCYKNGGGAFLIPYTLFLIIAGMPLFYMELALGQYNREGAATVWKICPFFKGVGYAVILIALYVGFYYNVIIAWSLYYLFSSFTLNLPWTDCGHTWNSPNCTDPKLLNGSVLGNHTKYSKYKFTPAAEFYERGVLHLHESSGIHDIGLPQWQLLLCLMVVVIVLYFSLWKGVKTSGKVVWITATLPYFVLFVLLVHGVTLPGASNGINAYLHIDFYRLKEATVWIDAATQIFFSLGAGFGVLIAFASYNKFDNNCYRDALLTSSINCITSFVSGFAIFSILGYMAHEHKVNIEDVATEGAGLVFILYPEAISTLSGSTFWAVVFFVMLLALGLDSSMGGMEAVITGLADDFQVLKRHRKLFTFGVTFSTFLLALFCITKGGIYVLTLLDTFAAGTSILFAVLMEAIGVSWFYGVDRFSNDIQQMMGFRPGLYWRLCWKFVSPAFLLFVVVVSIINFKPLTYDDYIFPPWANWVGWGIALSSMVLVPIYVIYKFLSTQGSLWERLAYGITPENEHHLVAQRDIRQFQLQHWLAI

D(1A) dopamine receptor = D(1A) dopamine receptor (Homo sapiens, UniProt P21728)
Sequence of D(1A) dopamine receptor (P21728 whole entry): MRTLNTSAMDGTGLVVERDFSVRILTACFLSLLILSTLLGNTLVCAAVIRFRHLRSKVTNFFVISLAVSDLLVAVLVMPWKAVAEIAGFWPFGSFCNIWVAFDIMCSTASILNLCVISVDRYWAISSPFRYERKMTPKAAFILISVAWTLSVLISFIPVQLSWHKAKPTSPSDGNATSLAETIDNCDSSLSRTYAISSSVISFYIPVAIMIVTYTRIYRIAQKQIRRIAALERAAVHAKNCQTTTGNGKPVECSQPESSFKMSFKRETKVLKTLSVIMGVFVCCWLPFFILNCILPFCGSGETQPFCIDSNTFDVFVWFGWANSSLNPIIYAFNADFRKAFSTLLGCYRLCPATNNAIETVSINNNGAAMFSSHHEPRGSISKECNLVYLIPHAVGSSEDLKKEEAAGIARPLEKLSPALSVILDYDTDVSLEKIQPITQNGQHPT

B1 bradykinin receptor = target: T2, B1 bradykinin receptor (Homo sapiens, UniProt P46663)
T2 sequence (P46663 whole entry): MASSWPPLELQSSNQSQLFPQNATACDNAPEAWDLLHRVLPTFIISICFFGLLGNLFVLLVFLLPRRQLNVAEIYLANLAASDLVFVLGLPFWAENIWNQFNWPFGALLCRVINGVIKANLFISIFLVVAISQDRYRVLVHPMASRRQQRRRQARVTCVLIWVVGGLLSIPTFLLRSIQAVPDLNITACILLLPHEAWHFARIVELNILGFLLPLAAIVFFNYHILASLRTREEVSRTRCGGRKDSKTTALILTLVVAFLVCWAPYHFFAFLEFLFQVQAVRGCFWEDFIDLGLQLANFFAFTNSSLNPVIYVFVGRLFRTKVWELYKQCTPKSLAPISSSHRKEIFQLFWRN

[5] = target: T3, Neuropeptide Y receptor type 2 (Homo sapiens, UniProt P49146)
T3 sequence (P49146 whole entry): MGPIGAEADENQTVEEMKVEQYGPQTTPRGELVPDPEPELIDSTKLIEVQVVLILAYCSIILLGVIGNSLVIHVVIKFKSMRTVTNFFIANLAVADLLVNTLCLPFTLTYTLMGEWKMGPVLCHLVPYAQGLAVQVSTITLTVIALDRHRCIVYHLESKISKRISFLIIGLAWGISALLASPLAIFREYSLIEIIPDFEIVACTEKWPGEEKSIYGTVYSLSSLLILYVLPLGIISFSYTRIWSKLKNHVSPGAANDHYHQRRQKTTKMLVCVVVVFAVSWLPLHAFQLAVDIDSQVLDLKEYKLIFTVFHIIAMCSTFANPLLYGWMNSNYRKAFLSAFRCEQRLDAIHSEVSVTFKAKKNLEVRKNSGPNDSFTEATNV

[6] = target: T4, Gastric inhibitory polypeptide receptor (Homo sapiens, UniProt P48546)
T4 sequence (P48546 whole entry): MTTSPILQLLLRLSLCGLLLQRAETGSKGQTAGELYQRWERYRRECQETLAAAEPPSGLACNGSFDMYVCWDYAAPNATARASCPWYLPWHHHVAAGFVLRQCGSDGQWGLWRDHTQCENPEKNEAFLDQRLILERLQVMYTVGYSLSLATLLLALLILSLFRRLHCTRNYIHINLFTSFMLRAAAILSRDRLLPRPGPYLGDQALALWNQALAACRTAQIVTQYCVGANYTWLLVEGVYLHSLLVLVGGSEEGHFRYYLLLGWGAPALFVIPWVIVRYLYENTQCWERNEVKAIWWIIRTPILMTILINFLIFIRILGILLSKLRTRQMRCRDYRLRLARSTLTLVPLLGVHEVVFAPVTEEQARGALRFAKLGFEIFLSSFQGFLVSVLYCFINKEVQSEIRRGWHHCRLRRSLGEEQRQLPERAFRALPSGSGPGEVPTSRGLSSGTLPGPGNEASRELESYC

D(4) dopamine receptor = target: T5, D(4) dopamine receptor (Homo sapiens, UniProt P21917)
T5 sequence (P21917 whole entry): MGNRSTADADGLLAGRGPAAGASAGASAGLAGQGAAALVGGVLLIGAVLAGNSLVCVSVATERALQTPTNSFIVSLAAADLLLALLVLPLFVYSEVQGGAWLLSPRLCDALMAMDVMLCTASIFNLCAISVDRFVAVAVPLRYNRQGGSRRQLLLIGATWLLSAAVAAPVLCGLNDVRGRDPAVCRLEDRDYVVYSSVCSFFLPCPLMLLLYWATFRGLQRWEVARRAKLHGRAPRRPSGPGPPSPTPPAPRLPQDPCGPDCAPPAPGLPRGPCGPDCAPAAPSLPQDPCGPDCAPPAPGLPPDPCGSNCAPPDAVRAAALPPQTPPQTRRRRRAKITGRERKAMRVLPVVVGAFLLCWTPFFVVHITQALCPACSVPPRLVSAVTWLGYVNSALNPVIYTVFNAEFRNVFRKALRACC

[7] = target: T6, Endothelin receptor type B (Homo sapiens, UniProt P24530)
T6 sequence (P24530 whole entry): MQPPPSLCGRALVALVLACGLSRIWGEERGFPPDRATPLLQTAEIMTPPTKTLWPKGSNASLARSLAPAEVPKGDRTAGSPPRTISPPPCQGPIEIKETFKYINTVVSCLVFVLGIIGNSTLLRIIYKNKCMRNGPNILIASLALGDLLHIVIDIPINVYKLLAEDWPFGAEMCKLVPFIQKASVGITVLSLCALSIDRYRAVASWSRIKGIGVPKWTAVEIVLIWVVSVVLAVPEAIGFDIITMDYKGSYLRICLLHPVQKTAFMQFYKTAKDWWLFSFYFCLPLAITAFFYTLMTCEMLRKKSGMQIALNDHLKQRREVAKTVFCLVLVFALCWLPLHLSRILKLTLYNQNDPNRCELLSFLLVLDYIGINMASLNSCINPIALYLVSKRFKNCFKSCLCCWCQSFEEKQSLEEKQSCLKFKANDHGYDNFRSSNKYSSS

[8] = target: T1, Alpha-1A adrenergic receptor
Further: assay procedure not described here.

Sequence of cGMP-inhibited 3',5'-cyclic phosphodiesterase 3A (Q14432 whole entry): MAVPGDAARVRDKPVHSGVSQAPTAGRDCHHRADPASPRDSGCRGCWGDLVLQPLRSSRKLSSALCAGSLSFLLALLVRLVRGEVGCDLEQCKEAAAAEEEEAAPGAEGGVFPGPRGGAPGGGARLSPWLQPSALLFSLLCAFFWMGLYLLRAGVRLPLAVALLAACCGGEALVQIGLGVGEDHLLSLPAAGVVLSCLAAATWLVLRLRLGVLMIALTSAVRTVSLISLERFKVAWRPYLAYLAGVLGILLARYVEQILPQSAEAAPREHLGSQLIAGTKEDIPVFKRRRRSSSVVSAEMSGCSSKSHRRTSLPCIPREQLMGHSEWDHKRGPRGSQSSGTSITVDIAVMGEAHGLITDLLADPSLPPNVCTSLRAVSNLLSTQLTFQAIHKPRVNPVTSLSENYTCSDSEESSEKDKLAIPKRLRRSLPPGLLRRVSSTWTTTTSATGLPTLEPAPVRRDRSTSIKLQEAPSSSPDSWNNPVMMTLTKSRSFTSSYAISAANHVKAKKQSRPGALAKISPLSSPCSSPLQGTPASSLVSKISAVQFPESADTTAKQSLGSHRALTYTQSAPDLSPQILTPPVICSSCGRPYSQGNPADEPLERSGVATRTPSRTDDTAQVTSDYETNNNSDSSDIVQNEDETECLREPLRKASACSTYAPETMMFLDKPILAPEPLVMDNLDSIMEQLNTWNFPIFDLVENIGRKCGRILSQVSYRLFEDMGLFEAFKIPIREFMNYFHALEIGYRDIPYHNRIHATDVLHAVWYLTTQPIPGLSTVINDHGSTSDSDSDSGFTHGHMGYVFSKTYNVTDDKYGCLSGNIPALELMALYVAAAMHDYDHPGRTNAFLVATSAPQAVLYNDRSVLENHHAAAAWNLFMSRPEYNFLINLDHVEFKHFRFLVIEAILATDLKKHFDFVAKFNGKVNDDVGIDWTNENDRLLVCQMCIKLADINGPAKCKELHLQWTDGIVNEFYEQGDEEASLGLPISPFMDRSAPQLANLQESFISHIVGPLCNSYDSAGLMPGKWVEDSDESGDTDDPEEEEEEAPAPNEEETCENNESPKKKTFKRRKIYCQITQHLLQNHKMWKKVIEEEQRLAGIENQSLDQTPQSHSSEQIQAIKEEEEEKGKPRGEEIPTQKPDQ
Sequence of 3',5'-cyclic-AMP phosphodiesterase 4A (P27815 whole entry): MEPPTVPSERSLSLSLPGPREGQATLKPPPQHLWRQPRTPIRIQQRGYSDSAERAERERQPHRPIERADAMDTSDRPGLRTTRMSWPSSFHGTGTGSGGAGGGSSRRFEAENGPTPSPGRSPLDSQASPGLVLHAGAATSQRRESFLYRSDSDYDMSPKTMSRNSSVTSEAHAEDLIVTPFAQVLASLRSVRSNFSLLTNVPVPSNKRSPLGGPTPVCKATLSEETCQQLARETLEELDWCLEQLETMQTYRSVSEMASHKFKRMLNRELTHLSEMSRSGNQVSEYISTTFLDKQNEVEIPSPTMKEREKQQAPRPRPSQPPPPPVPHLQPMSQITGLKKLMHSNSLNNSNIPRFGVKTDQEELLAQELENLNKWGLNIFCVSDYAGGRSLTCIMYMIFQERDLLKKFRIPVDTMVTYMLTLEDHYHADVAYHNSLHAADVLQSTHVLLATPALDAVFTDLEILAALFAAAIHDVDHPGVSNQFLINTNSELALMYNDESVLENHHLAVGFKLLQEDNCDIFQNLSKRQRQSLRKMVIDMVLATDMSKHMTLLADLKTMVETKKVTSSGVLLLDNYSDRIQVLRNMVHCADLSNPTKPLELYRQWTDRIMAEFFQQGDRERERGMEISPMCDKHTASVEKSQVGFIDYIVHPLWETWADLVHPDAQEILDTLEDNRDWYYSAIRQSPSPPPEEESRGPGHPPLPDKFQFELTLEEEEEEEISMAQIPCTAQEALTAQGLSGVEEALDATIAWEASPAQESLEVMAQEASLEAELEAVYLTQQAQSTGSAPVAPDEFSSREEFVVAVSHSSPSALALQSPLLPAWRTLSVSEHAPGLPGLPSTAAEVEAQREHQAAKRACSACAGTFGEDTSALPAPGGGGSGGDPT
Sequence of Histamine H3 receptor (Q9Y5N1 whole entry): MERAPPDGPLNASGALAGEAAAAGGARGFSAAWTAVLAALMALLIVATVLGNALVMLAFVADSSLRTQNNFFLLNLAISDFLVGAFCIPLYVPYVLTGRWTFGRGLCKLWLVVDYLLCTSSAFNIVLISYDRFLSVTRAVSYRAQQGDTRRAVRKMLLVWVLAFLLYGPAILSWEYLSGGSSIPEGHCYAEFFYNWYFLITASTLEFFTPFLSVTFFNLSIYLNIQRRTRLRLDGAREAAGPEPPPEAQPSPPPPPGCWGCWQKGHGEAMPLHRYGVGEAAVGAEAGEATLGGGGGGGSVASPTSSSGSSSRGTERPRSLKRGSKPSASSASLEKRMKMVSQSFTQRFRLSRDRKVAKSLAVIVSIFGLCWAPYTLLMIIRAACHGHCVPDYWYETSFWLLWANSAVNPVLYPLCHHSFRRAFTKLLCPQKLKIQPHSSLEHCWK

Compound	AC50 [1] [µM]	AC50 (Histamine H3 receptor) [µM]	AC50 [2] [µM]	AC50 [3] [µM]	AC50 [4] [µM]	AC50 (D(1A) dopamine receptor) [µM]	AC50 (B1 bradykinin receptor) [µM]	AC50 [5] [µM]	AC50 [6] [µM]	AC50 (D(4) dopamine receptor) [µM]	AC50 [7] [µM]	AC50 [8] [µM]
THIMEROSAL	> 30	> 30	> 30	> 30	> 30							
COc1cccc(C2(O)CCCCC2CN(C)C)c1 (centres undefined) [TRAMADOL]						> 10	> 30	> 30	> 30	> 10	> 30	> 10
Cc1c(OCC(F)(F)F)ccnc1C[S+]([O-])c1nc2ccccc2[nH]1 (centres undefined) [LANSOPRAZOLE]						> 10	> 30	> 30	> 30	2.11	> 30	> 10
CO[C@]12C[C@@H](COC(=O)c3cncc(Br)c3)CN(C)[C@@H]1Cc1cn(C)c3cccc2c13 [NICERGOLINE]	> 30	7.91	> 30	21.8	11.1							
